Measurements: patent US20200069775A1, “BRAIN OSTEOCALCIN RECEPTOR AND COGNITIVE DISORDERS” (The Trustees of Columbia University in the City of New York, priority 2017, published 2020)
Values belong to the molecule of their own block, whether it stands above or below them.

Assays:
[1] = tested on: 3 month-old WT mice; assay: Alendronate treatment with or without osteocalcin, MWMT and NOR; type: in vivo, mouse
Protocol: For plasma injection experiments, 100 μl of plasma were injected 8 times during 24 days, via tail vein. Each group described is represented individually in each panel. For osteocalcin delivery in WT mice, pumps (Alzet micro-osmotic pump, Model 1002) delivering osteocalcin (30 ng/hr for 12 month-old and 90 ng/hr for 16 month-old mice), or vehicle, were surgically installed subcutaneously in the back of mice. […] Control mice receiving vehicle or mice receiving alendronate were implanted with osmotic pumps delivering vehicle only.
Morris water maze test: Animals are transported to the testing room in their home cages, and left undisturbed for at least 30 minutes prior to the first trial. The maze is comprised of a large swimming pool (150cm diameter) filled with water (23° C.) made opaque with non-toxic white paint. The pool is located in a brightly lit room filled with visual cues, including geometric figures on the walls of the maze demarking the four fixed starting positions of the trials, at (12:00, 3:00, 6:00 and 9:00). A 15 cm round platform is hidden 1 cm beneath the surface of the water at a fixed position. Each daily trial block consisted of four swimming trials, with each mouse starting from the same randomly chosen starting position. The starting position is varied between days. On day 1, mice that fail to find the platform within 2 min are guided to the platform. They must remain on the platform for 15 s before they are returned to their home cage. Mice are not guided to the platform after day 1, and the time it takes them to reach the platform over repeated trials ([…] for the next 10 days) is recorded as a measure of spatial learning.
Novel object recognition test (NOR): The NOR paradigm assesses the rodent's ability to recognize a novel object in the environment. The NOR task will be conducted, as previously described7, in an opaque plastic box using 2 different objects: (1) a clear plastic funnel (diameter 8.5 cm, maximal height 8.5 cm) and (2) a black plastic box (9.5 cm^3). These objects elicit equal levels of exploration as determined in pilot experiments (Denny, C. A., et al., 2012, Hippocampus 22:1188-1201; Oury, F., et al., 2013, Cell 155:228-241). The NOR paradigm consists of 3 exposures over the course of 3 days. On day 1, the habituation phase, mice are given 5 minutes to explore the empty arena, without any objects. On day 2, the familiarization phase, mice are given 10 minutes to explore 2 identical objects, placed at opposite ends of the box. On day 3, the test phase, mice are given 15 minutes to explore 2 objects, one novel object and a copy of the object from the familiarization phase. The object that serves as the novel object (either the funnel or the box) as well as the left/right starting position of the objects are counterbalanced within each group. Mice are placed in the center of the arena at the start of each exposure. […] Preference for the novel object is assessed based on the fraction of time that a mouse spends exploring the novel object compared to the familiar object. Exploration is scored from video recordings of each exposure and recorded using the Stopwatch program. […]
Streptavidin were added for 30 minutes at room temperature followed by PBS washes. […] For hormonal measurement; circulating levels of the carboxylated, undercarboxylated or uncarboxylated forms of osteocalcin were measured by ELISA. CTX content in serum (ng/ml) were measured with specific ELISAs (RatLaps™ (CTX-I) EIA (Immunodiagnosticsystems).

[2] = tested on: brainstem neurons (dorsal raphe 5-HT neurons, locus coeruleus, GABAergic interneurons); assay: Whole cell current clamp recording in brainstem slices; type: cell-based, mouse; conditions: 3 μM, current clamp in slices
Protocol: Brain slice preparations and electrophysiological recordings were performed according to methods known in the art. Briefly, WT mice were anesthetized with ether and then decapitated. The brains were rapidly removed and immersed in an oxygenated bath solution at 40° C. containing (in mM): sucrose 220, KCl 2.5, CaCl2 1, MgC12 6, NaH2PO4 1.25, NaHCO3 26, and glucose 10 pH 7.3 with NaOH. Coronal slices (350 μm thick) containing dorsal raphe (DR) were cut on a vibratome and maintained in a holding chamber with artificial cerebrospinal fluid (ACSF) (bubbled with 5% CO2 and 95% O2) containing (in mM): NaCl 124, KCl 3, CaCl2 2, MgCl2 2, NaH2PO4 1.23, NaHCO3 26, glucose 10, pH 7.4 with NaOH, and were transferred to a recording chamber constantly perfused with bath solution (330 C) at 2 ml/min after at least a 1 hr recovery. Whole-cell current clamp was performed to observe action potentials in DR serotoninergic (5-HT) neurons with a Multiclamp 700A amplifier (Axon instrument, CA). Patch pipettes with a tip resistance of 4-6 MΩ were made of borosilicate glass (World Precision Instruments) with a Sutter pipette puller (P-97) and filled with a pipette solution containing (in mM): K-gluconate (or Cs-gluconate) 135, MgCl2 2, HEPES 10, EGTA 1.1, Mg-ATP 2, Na2-phosphocreatine 10, and Na2-GTP 0.3, pH 7.3 with KOH. After a giga-Ohm (GΩ) seal and whole-cell access were achieved, the series resistance (between 20 and 40 MΩ) was partially compensated by the amplifier. […] All data were sampled at 3-10 kHz and filtered at 1-3 kHz with an Apple Macintosh computer using Axograph 4.9 (Axon Instruments). Electrophysiological data were analyzed with Axograph 4.9 and plotted with Igor Pro software (WaveMetrics, Lake Oswego, Oreg.).

[3] = Blood brain barrier crossing: subcutaneous pump infusion, content in blood, bone and brain parts by ELISA; type: in vivo, mouse; conditions: ob/ob mice, subcutaneous infusion 50 ng/hour, seven days; positive control
Protocol: Osteocalcin−/−, Gprc6a−/−, Osteocalcin-mCherry, and Osteocalcin foxed mice have been previously described (Ducy et al., 1996, Nature 382:448-452; Oury et al., 2011, Cell 144:796-809). Mouse genotypes were determined by PCR. For all experiments, controls were littermate female WT, Cre-expressing, or flox/flox. All mice were maintained on a pure 129-Sv genetic background except for the inducible deletion Osteocalcin model (mix background: 25% C57/BL6 and 75% 129sv). For inducible gene deletion mice, tamoxifen was prepared in corn oil and injected intraperitoneally (IP) (1 mg/20g of body weight) over one week. For osteocalcin delivery to pregnant mice, IP injections (240 ng/day) were performed as soon as a plug was present daily until delivery (E0.5-E18.5). For osteocalcin or leptin infusion in adult Osteocalcin−/− or ob/ob mice, pumps (Alzet micro-osmotic pump, Model 1002) delivering osteocalcin (300 ng/hr), leptin (50 ng/hr), or vehicle were surgically installed subcutaneously in the backs of 3-month old mice. For the postnatal rescue of cognitive functions in Osteocalcin−/− mice, osteocalcin (10 ng/hour) or vehicle were delivered intrasubventricularly (icv) as previously described (Ducy et al., 2000, Cell 100:197-207). Leptin and osteocalcin content in sera and tissues were determined by ELISA.
To understand how this behavioral phenotype develops, whether osteocalcin crosses the blood brain barrier (BBB) was tested by installing pumps that subcutaneously delivered vehicle or uncarboxylated osteocalcin (50 ng/hour) in three-month-old Osteocalcin−/− mice. The positive control for this experiment was subcutaneous infusion of leptin (50 ng/hour) in 3 month-old ob/ob mice, since leptin is known to cross the BBB (Banks et al., 1996, Peptides 17:305-311). Seven days later, osteocalcin and leptin content were measured in blood, bone, and in various parts of the brain in Osteocalcin−/− and ob/ob mice, respectively.

[4] = tested on: Tph2, Th, Gad1 expression in brainstem and midbrain explants; assay: Gene expression (qPCR) in brainstem and midbrain explants; type: cell-based, mouse; conditions: leptin positive control; WT or Gprc6a−/− brainstem explants
Protocol: For gene expression studies, RNA was isolated from primary neurons or tissue using TRIZOL® (Invitrogen). cDNA synthesis was performed following a standard protocol from Invitrogen and qPCR analyses were done using specific quantitative PCR primers from SABiosciences (http://www.sabiosciences.com/RT2PCR.php).
Brains were dissected and incubated for 30 minutes in ice cold oxygenated artificial cerebrospinal fluid (ACSF). Brains were then sliced at 500 μm at the midbrain, −1.55 to −2.35 mm from the bregma, and at the level of the brainstem, from −4.04 to −4.48 mm and from −4.60 to −5.20 mm from the bregma, to include the median and dorsal raphe, respectively. These slices were incubated in ACSF for 1 h, constantly oxygenated (95% O2 and 5% CO2) […], after which they were treated with either osteocalcin (10 ng/ml) or PBS for four hours. Expression of Tph2, TH, GAD 1, GAD2, and Ddc was measured by qPCR.
To determine if osteocalcin acts directly on neurons to modulate neurotransmitter synthesis, several types of assays were performed. First, brainstem and midbrain explants from WT and Gprc6a^−/− mice were generated. Brains were sliced (500 μm) at the level of the median and dorsal raphe of the brainstem (from −4.04 to −4.48 mm and from −4.60 to −5.20 mm, respectively), so that they would be enriched in serotonin-producing neurons, as well as at the level of substantia nigrae and ventral tegmental areas (VTA) of the midbrain (from −1.55 to −2.35 mm and from −2.55 to −3.25 mm, respectively). Enrichment in serotoninergic and catecholaminergic neurons in these explants was verified by their high Tph2 and Th expression. While leptin, used here as a positive control, reduced, as it should, Tph2 expression in WT or Gprc6a^−/− brainstem explants, osteocalcin ([…]) increased expression of this gene 2.5 fold in both WT and Gprc6a^−/− explants. (FIG. 3D). […] Third, to further confirm that osteocalcin signals in neurons of the hindbrain, calcium flux in MPHN treated with undercarboxylated or carboxylated osteocalcin (FIG. 3F) was measured.

learning in the MWMT ([1]; alendronate-treated mice): delay in learning in the MWMT | memory in NOR ([1]; alendronate-treated mice): memory deficit in NOR
Molecule: NCCCC(O)(P(=O)(O)O)P(=O)(O)O [alendronate]
bone resorption ([1]; 3 week-long treatment): inhibited bone resorption | circulating levels of bioactive osteocalcin ([1]; 3 week-long treatment): decreased the circulating levels of bioactive osteocalcin

Molecule: CN1CC(=O)N=C1N.NCCc1c[nH]c2ccc(O)cc12.O=S(=O)(O)O [serotonin creatinine sulfate complex, reference compound]
action potentials in dorsal raphe 5-HT neurons [2]: inhibited action potentials

B1: leptin (protein, UniProt P41160 22-167, looked up)
Leptin: VPIQKVQDDTKTLIKTIVTRINDISHTQSVSAKQRVTGLDFIPGLHPILSLSKMDQTLAVYQQVLTSLPSQNVLQIANDLENLRDLLHLLAFSKSCSLPQTSGLQKPESLDGVLEASLYSTEVVALSRLQGSLQDILQQLDVSPEC
notes: adipocyte-derived hormone, positive control known to cross the BBB
leptin content in parts of the brain [3]: could be detected in the brainstem and hypothalamus | Tph2 expression [4]: reduced
